# From patent US8536307B2, “Anticalins” (Pieris AG, priority 1997, dated 2013)
# B1: HepC4: Anticalin (Bbp mutein) binding hepatitis C peptide epitope, produced as fusion with Strep-Tag II and albumin-binding domain (protein)
# chain: DVYHDGACPEVKPVDNFDWSQYHGKWWEVAKYPQAPGKYGKCGWAEYTPEGKSVKVSPYNVIHGKEYFAEGTAYPVGDSKIGKIYHSWTGGGLTAEWVFNVLSTDNKNYIIGYPCRYDEDKKGHLDPVWVLSRSMVLTGEAKTAVENYLIGSPVVDSQKLVYSDFSEAACKVNNLAEAKVLANRELDKYGVSDYYKNLINNAKTVEGVKALIDEILAALP
# modifications: left off: small tags and cut ends
# B2: Bbp: Recombinant bilin-binding protein from Pieris brassicae (modified, encoded on pBBP21/pBBP22), produced as a control (protein)
# chain: DVYHDGACPEVKPVDNFDWSQYHGKWWEVAKYPNSVEKYGKCGWAEYTPEGKSVKVSNYHVIHGKEYFIEGTAYPVGDSKIGKIYHSLTYGGVTKENVFNVLSTDNKNYIIGYYCKYDEDKKGHQDFVWVLSRSMVLTGEAKTAVENYLIGSPVVDSQKLVYSDFSEAACKVNNLAEAKVLANRELDKYGVSDYYKNLINNAKTVEGVKALIDEILAALP
# modifications: left off: small tags and cut ends
# B3: HepC1: Anticalin (Bbp mutein) binding hepatitis C peptide epitope, produced as fusion with Strep-Tag II and albumin-binding domain (protein)
# chain: DVYHDGACPEVKPVDNFDWSQYHGKWWEVAKYPKTKQKYEKCGWAEYTPEGKSVKVSLYHVIHGKEYFFEGTAYPVGDSKIGKIYHSVTAGGFTSEQVFSVLSTDNKNYIIGYACYYDEDKKGHVDFVWVLSRSMVLTGEAKTAVENYLIGSPVVDSQKLVYSDFSEAACKVNNLAEAKVLANRELDKYGVSDYYKNLINNAKTVEGVKALIDEILAALP
# modifications: left off: small tags and cut ends
# How the values were obtained:
# [1] = target: anticalin FluC, mutein of Pieris brassicae bilin-binding protein (Bbp): Asn34Ser, Ser35Lys, Val36Asn, Glu37Gly, Gly40Arg, Asn58Arg, His60Thr, Ile69Gln, Leu88Arg (Pieris brassicae, UniProt P09464, E52G/F142H/F83V/G55R/H75T/I84Q/K102S/K110R/K131R/K150M/L103R/N112G/N16D/N36Q/N49S/N73R/Q140L/S50K/V108K/V51N/Y105V/Y129R); settings: fluorescence titration, excitation 280 nm, emission 340 nm, 1 μM anticalin, PBS with 1 mM EDTA, pH 7.4, 25° C.; [P]t additionally fitted as a free parameter
# [2] = target: biotinylated synthetic hepatitis C-peptide epitope, peptide fragment no. 59 from the surface protein NS4 of HCV (SEQ ID NO:13) (Hepatitis C virus genotype 1a, UniProt P27958); test: Sandwich-ELISA for detection of hepatitis C peptide epitope; settings: ranking of signal strength
# Protocol: For the ELISA, the wells in a microtiter plate (ELISA-STRIP, 2×8 wells, KO, F-form, high binding capacity, Greiner) were each filled with 200 μl of a solution of 20 mg/ml HSA in 50 mM NaHCO3 pH 9.6 and were incubated for 1 hour at RT. After removal of the solution, the unoccupied binding sites were saturated with 200 μl 3% w/v BSA in PBS with 0.5% v/v Tween 20 for 1 hour. After washing three times with PBST, 50 μl of the undiluted periplasmic protein extract were filled into the respective first well of a row. 50 μl PBS were first placed into each of the subsequent wells of each row. 50 μl of the periplasmic protein extract were then pipetted into the respective second well, were mixed, and, starting from this, 1:2 dilutions in the subsequent wells were prepared in a stepwise manner. The periplasmic protein extract with the Bbp, which was made using pBBP22 as expression plasmid, served as a control.
# After 1 hour incubation at RT washing followed three times with PBST, followed by pipetting of 200 μl of the ligand solution (SEQ ID NO:13, 1 μM in PBST) into each well. […] To this end, 100 μl of a solution of 0.5 mg/ma p-nitrophenylphosphate (Amresco) in AP-buffer were placed in each well and product formation was measured by absorption at 405 nm in a SpectraMax 250 photometer (Molecular Devices) as dA/dt number.
# [3] = Fluorescence titration (decrease of intrinsic protein fluorescence) with ligand fluorescein; assay type: binding; settings: measurement for comparison, fluorescein ligands
# Protocol: The ligand-binding characteristics of the anticalins, were then determined by fluorescence titration. Here, the decrease in the intrinsic tyrosine and tryptophan fluorescence of the protein upon complex formation with the ligand was measured. The measurements were made with a fluorescence photometer (MS III, Photon Technology International Inc.) at an excitation wavelength of 280 nm (slit width 5 nm) and emission wavelength of 340 nm (slit width 10 nm). Fluorescein, 4-amino-fluorescein as well as its conjugate with glutaric acid from Example 2 were used as ligands.
# PBS with addition of 1 mM EDTA, pH 7.4 (adjusted with NaOH) served as buffer system. […] For FluA and Bbp, the corrected calculated extinction coefficients in the presence of guanidinium chloride according to Gill and von Hippel (Anal. Biochem. 182 (1989), 319-326) of 59755 M^−1 cm^−1 (FluA) as well as 54150 M^−1 cm^−1 (Bbp) were used.
# For the measurement, 2 ml of the anticalin solution was applied in a quartz cuvette equipped with a stirring bar and thermostatted at 25° C. in the sample holder of the photometer. […] After every titration step the sample was incubated for 1 minute with stirring for equilibration, and the fluorescence signal was measured as an average value over 10 s. […]
# [formula] Here, F is the normalized fluorescence intensity and [P]t the concentration of the anticalin. […]
# UniProt P09464, sequence (P09464 other isoform, or with tags, fused parts or gaps with the stated changes): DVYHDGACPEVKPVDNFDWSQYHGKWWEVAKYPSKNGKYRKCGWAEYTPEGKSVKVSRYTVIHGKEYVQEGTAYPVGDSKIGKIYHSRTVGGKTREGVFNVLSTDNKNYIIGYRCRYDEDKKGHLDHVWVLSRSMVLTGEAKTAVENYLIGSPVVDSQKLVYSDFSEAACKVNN
Molecule,Dissociation constant (Kd) [1] [nM],sandwich-ELISA signal in comparison between anticalins [2],also measured
"Nc1ccc2c(c1)C(=O)OC21c2ccc(O)cc2Oc2cc(O)ccc21 [4-Aminofluorescein, 4-amino-fluorescein]",299 ± 41,–,–
"O=C(O)CCCC(=O)Nc1ccc2c(c1)C(=O)OC21c2ccc(O)cc2Oc2cc(O)ccc21 [4-Glutarylamidofluorescein, 4-glutarylamido-fluorescein]",78 ± 3,–,–
"O=C1OC2(c3ccc(O)cc3Oc3cc(O)ccc32)c2ccccc21 [Fluorescein, fluorescein]",411 ± 20,–,–
B1,–,followed by HepC4,–
B2,–,–,binding effect in fluorescence titration (dissociation constant) [3]: so weak that a dissociation constant could not be determined
B3,–,strongest,–
